Assay results from patent publication US20220280526A1, “AGENT FOR THE TREATMENT OF PSORIASIS” (EBERHARD KARLS UNIVERSITAET TUEBINGEN MEDIZINISCHE FAKULTAET, priority 2019, published 2022).
Entries after “also recorded” stand apart in the source; their conditions may differ.

Columns and labels:
[1] = test system: IMQ-induced psoriasis-like skin inflammation; experiment: Imiquimod (IMQ)-mediated psoriasis mouse model, topical treatment of ears; format: in vivo, C57BL/6 mice
Experimental: Experiments were conducted in accordance with the German law guidelines of animal care. […] At day 7, mice were sacrificed and analysed. For IL-36α-mediated psoriasis induction, ears of male C57BL/6 mice (8-12 weeks old) were treated by intradermal injections using 1 μg murine IL-36α (aa 8-160, R&D) or PBS control for 5 consecutive days. […] Inhibitors were topically applicated 6 h before intradermal injections of IL-36α or PBS were applied. Mice were sacrificed and analysed at day 6.
Sample preparation was performed as described. The following anti-mouse antibodies from BioLegend were used: anti-CD45 FITC (103107), anti-CD11 b PacificBlue (101223), anti-Ly6G PE (127607), anti-F4/80 APC (123115), anti-CD11c Pacific Blue (117322), anti-MHC-II APC (107613), anti-CD172α PE (144011) and anti-Silec-H PE (129605). Anti-PDCA-1 APC (17-2092-80) and anti-αβTCR PE (HM3628) were purchased from Invitrogen, and anti-γδ-TCR APC (17-5711-82) from Sigma. Data was acquired on a LSRII flow cytometer (Becton Dickson).
Ear sections from mice were fixed in 10% formalin (Carl Roth) and subsequently embedded in paraffin. 5-μm sections were prepared and incubated with the following antibodies from Cell Signaling: pSTAT3 (9145), pRB (8516) and H3K27me3 (9733). For staining of human skin samples, EZH2 antibody (Cell Signaling, 5246) was used. Antigen retrieval was performed in 1 mM EDTA pH 8.0 for pSTAT3, and 10 mM citrate buffer pH 6.0+0.5% Triton X-100 for EZH2, H3K27me3 and pRB. After incubation with peroxidase-coupled secondary antibodies, sections were stained with DAB substrate.

IκBζ (NFKBIZ) expression = experiment: IκBζ expression in cytokine-stimulated primary human keratinocytes (immunoblot, qPCR); format: cell-based; details: 1 h cytokine, abemaciclib 16 μM, palbociclib 50 μM
Text: HaCaT cells were maintained in DMEM with 10% FCS and antibiotics. Human primary keratinocytes were freshly isolated from foreskin and maintained in CnT-07S medium with gentamycin (CELLnTEC). Recombinant human IL-36α (aa 6-158) and mouse IL-36α (aa 6-160) were purchased from R&D Systems. Recombinant IL-17A (11340174), TNFα (11343013) and IL-1β (11340013) were ordered from Immunotools. Flagellin (vac-fla) and poly I:C (vac-pic) were purchased from Invivogen. In cell culture experiments, the cytokines were used at the following concentrations, as described previously: IL-36α (100 ng/mL), IL-17A (200 ng/mL), TNFα (10 ng/mL) and IL-1β (100 ng/mL). Flagellin was applied at 10 ng/mL and poly(I:C) was added at a final concentration of 100 ng/mL. […] When indicated, cells were starved for 2 h prior to cytokine treatment, by removing cell culture supplements from the growth medium.
Western blot analysis was performed as described before. […]
Gene expression analyses were performed as described. Relative gene expression was analyzed using self-designed primers ordered at Metabion (not shown). Relative mRNA levels were calculated by normalization to the human reference gene RPL37A or the mouse reference gene Actin using the 2-ΔΔCt method.

[2] = test system: IL-36-mediated psoriasis-like dermatitis; experiment: IL-36α-triggered psoriasis-like dermatitis mouse model, topical treatment of ears; format: in vivo, C57BL/6 mice
Experimental: Experiments were conducted in accordance with the German law guidelines of animal care. […] At day 7, mice were sacrificed and analysed. For IL-36α-mediated psoriasis induction, ears of male C57BL/6 mice (8-12 weeks old) were treated by intradermal injections using 1 μg murine IL-36α (aa 8-160, R&D) or PBS control for 5 consecutive days. […] Inhibitors were topically applicated 6 h before intradermal injections of IL-36α or PBS were applied. Mice were sacrificed and analysed at day 6. Ear sections from mice were fixed in 10% formalin (Carl Roth) and subsequently embedded in paraffin. 5-μm sections were prepared and incubated with the following antibodies from Cell Signaling: pSTAT3 (9145), pRB (8516) and H3K27me3 (9733). For staining of human skin samples, EZH2 antibody (Cell Signaling, 5246) was used. Antigen retrieval was performed in 1 mM EDTA pH 8.0 for pSTAT3, and 10 mM citrate buffer pH 6.0+0.5% Triton X-100 for EZH2, H3K27me3 and pRB. After incubation with peroxidase-coupled secondary antibodies, sections were stained with DAB substrate.

[3] = flow cytometry of ears at day 7

skin penetration of topically applied inhibitor ([1]; topical on mouse ear skin): effectively penetrated
Substance: Abemaciclib mesylate
pRB expression in the epidermis (CDK4/6 inhibition) ([1]; ear skin sections of treated mice): loss of pRB | immune cell infiltration (neutrophils, macrophages, T cells) [1, 3]: significantly suppressed | number of infiltrating plasmacytoid (pDC) and myeloid dendritic cells (mDC) [1, 3]: significantly suppressed | IκBζ expression, phosphorylation of EZH2 at T345 and of STAT3 at Y705 in the skin ([1]; immunoblot of skin tissue at day 7): completely abrogated | expression of IκBζ target genes (Cxcl2, Cxcl5) and cytokines (Il17a, Il23a) in skin ([1]; qPCR of skin samples at day 7): significantly downregulated | psoriasis-like skin inflammation (ear thickening, keratinocyte hyperproliferation, immune cell infiltration) ([1]; topical daily for 6 days with IMQ, abemaciclib 0.02 mg, CPI-169 0.05 mg per ear/day, analysed day 7): completely suppressed | IL-36α- or IL-17A/TNFα-mediated induction of IκBζ expression (IκBζ (NFKBIZ) expression): completely blocked; also recorded: abolished | IL-36-mediated expression of IκBζ, phosphorylation of EZH2 at T345 and activation of STAT3 (pSTAT3 Y705) in skin ([2]; immunoblot of ear skin at day 6): suppressed | keratinocyte hyperproliferation and immune cell infiltration ([2]; intradermal IL-36α 5 days, topical inhibitor, abemaciclib 0.02 mg, CPI-169 0.05 mg, day 6): effectively blocked | IκBζ target gene expression and key cytokine expression (Il17a, Il23a) ([2]; qPCR of skin samples): effectively blocked
